# Data: patent US11535630B2, “Apelin receptor (APJ) agonists and uses thereof” (Research Triangle Institute, priority 2015, dated 2022)
# Read-outs that look alike come from different tables or passages of the source.
# Experiments:
# [1] = Caco-2 cellular uptake / permeability assay (A-to-B, B-to-A); type: in vitro ADME; conditions: human, Caco-2, pH 7.4
# Method: 5.3. Cellular Uptake Assay
# Caco-2 cells (clone C2BBe1) were obtained from American Type Culture Collection (Manassas, Va,). Cell monolayers were grown to confluence on collagen-coated, microporous, polycarbonate membranes in 12-well Costar Transwell plates. Details of the plates and their certification are shown below. The permeability assay buffer was Hanks' balanced salt solution (HBSS) containing 10 mM HEPES and 15 mM glucose at a pH of 7.4. The buffer in the receiver chamber also contained 1% bovine serum albumin. The dosing solution concentration was 5 μM for each test article in the assay buffer. Cell monolayers were dosed on the apical side (A-to-B) or basolateral side (B-to-A) and incubated at 37° C. with 5% CO2 in a humidified incubator. Samples were taken from the donor and receiver chambers at 120 minutes. Each determination was performed in duplicate. After the experiment, all assay buffers were removed from the inserts. Cell monolayers were dosed with blank 500 μM lucifer yellow on the A-to-B side and blank HBSS on the B-to-A side and incubated at 37° C. Samples were taken from the B-to-A side at 60 minutes. The flux of lucifer yellow was measured for each monolayer to ensure no damage was inflicted to the cell monolayers during the flux period. All samples were analyzed by LC-MS/MS using electrospray ionization.
# Where, dCr/dt is the slope of the cumulative concentration in the receiver compartment versus time in μM s^−1;
# Vr is the volume of the receiver compartment in cm^3;
# Vd is the volume of the donor compartment in cm^3;
# CA is the average of the nominal dosing concentration and the measured 120-minute donor concentration in μM;
# CN is the nominal concentration of the dosing solution in μM;
# Cr^final is the cumulative receiver concentration in μM at the end of the incubation period;
# Cd^final is the concentration of the donor in μM at the end of the incubation period.
# Efflux ratio (ER) is defined as Papp (B-to-A)/Papp (A-to-B).
# apelin receptor (APJ) = biological target: T1, apelin receptor (APJ) (Homo sapiens, UniProt P35414); assay: In vitro apelin agonist activity (methods of Giddings et al., Apelin-13 as positive control); type: cell-based
# T1 sequence (P35414 1-380): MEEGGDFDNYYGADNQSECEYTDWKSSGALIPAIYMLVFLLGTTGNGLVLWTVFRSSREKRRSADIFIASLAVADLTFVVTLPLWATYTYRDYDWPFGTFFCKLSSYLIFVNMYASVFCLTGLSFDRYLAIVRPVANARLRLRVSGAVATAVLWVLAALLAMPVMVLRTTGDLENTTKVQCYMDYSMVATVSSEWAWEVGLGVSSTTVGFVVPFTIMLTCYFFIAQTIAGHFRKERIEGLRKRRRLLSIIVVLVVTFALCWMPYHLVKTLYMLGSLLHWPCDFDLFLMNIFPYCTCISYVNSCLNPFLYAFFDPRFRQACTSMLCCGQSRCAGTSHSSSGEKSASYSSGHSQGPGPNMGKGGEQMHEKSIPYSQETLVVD
# Text: Characterization of the Apelin Agonist Activity of the Compounds
# 1:39-47, the contents of which are hereby incorporated by reference in its entirety. Using the methods described in Giddings et al. and Apelin-13 as a positive control.
# [2] = apelin agonist potency as listed in Table 3 (Cellular Uptake Results), read-out: EC50
# [3] = in vitro apelin agonist activity, methods of Giddings et al., Apelin-13 as positive control, read-out: EC50 (nM) Ave
"efflux ratio at 120 min, 5 μM [1]",EC50 (apelin receptor (APJ); [2]) [nM],EC50 (apelin receptor (APJ); [3]) [nM],Compound
1,7,7,"CCc1ccccc1-c1cc(C(=O)N[C@@H](CCN2CCCC(F)(F)C2)CC(=O)Nc2nccs2)nn1C1CCCC1 [compound 410, (3S)-3-{[1-cyclopentyl-5-(2-ethylphenyl)-1H-pyrazol-3-yl]formamido}-5-(3,3-difluoropiperidin-1-yl)-N-(1,3-thiazol-2-yl)pentanamide]"
3.6,44,44,"CCc1ccccc1-c1cc(C(=O)N[C@@H](CCN2CCCCC2)CC(=O)NC2CCC2)nn1C1CCCC1 [compound 363, (3S)-N-cyclobutyl-3-{[1-cyclopentyl-5-(2-ethylphenyl)-1H-pyrazol-3-yl]formamido}-5-(piperidin-1-yl)pentanamide]"
1,63,63,"COc1cccc(OC)c1-c1cc(C(=O)N[C@@H](CCN2CCC(F)(F)CC2)CC(=O)NC2CCC2)nn1C1CCCC1 [compound 335, (3S)-N-cyclobutyl-3-{[1-cyclopentyl-5-(2,6-dimethoxyphenyl)-1H-pyrazol-3-yl]formamido}-5-(4,4-difluoropiperidin-1-yl)pentanamide]"
2.1,15,15,"COc1cccc(OC)c1-c1cc(C(=O)N[C@@H](CCN2CCCC(F)(F)C2)CC(=O)NC2CCC2)nn1C1CCCC1 [compound 348, (3S)-N-cyclobutyl-3-{[1-cyclopentyl-5-(2,6-dimethoxyphenyl)-1H-pyrazol-3-yl]formamido}-5-(3,3-difluoropiperidin-1-yl)pentanamide]"
1.7,15,15,"COc1cccc(OC)c1-c1cc(C(=O)N[C@@H](CCN2CCCC(F)(F)C2)CC(=O)Nc2nccs2)nn1C1CCCC1 [compound 384, (3S)-3-{[1-cyclopentyl-5-(2,6-dimethoxyphenyl)-1H-pyrazol-3-yl]formamido}-5-(3,3-difluoropiperidin-1-yl)-N-(1,3-thiazol-2-yl)pentanamide]"
